Test results taken from publication PMC2206373, “Identification of an altered peptide ligand based on the endogenously presented, rheumatoid arthritis-associated, human cartilage glycoprotein-39(263–275) epitope: an MHC anchor variant peptide for immune modulation” (Arthritis Research & Therapy, 2007).
No end group written: not given here.

Tests used:
T cell hybridoma 8B12 = assay: T hybridoma 8B12 IL-2 response; type: cell-based, mouse; conditions: for Hybridoma response (SI) 8B12: IL-2 by ELISA after 48 h, peptide 10 μg/ml, SI > 2 positive
Protocol: (§1) The T cell hybridomas, provided by G Sonderstrup (Stanford, CA, USA), were generated as described. In brief, human CD4, HLA-DRA*101/HLA-DRB*0401 triple transgenic (HLA-DR4trg) mice (devoid of I-Aβ) were immunized in the footpad with 50 μg of purified HC gp-39 mixed in incomplete Freund's adjuvant (IFA). Draining lymph nodes were isolated and T-cell hybridomas were generated by polyethylene glycol fusion of primed and in vitro antigen-restimulated lymph node cells with the AKR BW5147 fusion partner. Following fusion, growth-positive hybridoma wells were screened for reactivity to HC gp-39 and a set of 55 peptides (16 amino acids in length) covering the entire HC gp-39 sequence. HLA-DR4(B1*0401)-restricted hybridomas responsive to both the HC gp-39 protein and the immunodominant epitope 263–275 of HC gp-39 (for example, 5G11, 8B12, 14G11 and 20H5) were cloned, subcloned, characterised and selected for further study.
(§2) HC gp-39-specific IL-2 production by T hybridomas was measured in wells of round-bottomed microtiter plates. Hybridoma cells (2 to 5 × 10^4) and irradiated APC (0.5 to 1 × 10^5; 12,000 to 16,000 RAD) from the B lymphoblastoid cell line (BLCL) carrying the DRB1*0401 specificity were incubated in 150 μl volumes. Antigen was added in 50 μl volumes to duplicate wells. After 48 h, 100 μl of the culture supernatant was assayed for IL-2 production using a sandwich ELISA with Pharmingen antibodies specific for mouse IL-2. The antigen sensitivity of the hybridomas to both peptide and protein was determined (Figure 2). […] In later assays, an excess of peptide or APL (10 μg/ml), inducing maximal responses in all hybridomas, was tested.

T cell hybridoma 14G11 = assay: T hybridoma 14G11 IL-2 response; type: cell-based, mouse; conditions: for Hybridoma response (SI) 14G11: IL-2 by ELISA after 48 h, peptide 10 μg/ml, SI > 2 positive
Protocol: as §1, §2

[1] = Figure 2a dose response, IL-2 ELISA after 48 h

## RSFTLASSETGVG [Compound 1, HC gp-39(263–275)]
T cell hybridoma 8B12; Figure 1, IL-2 production, DRB1*0401 BLCL as APC, duplicate or triplicate, background 16,288 counts, ±30% of WT response = super/partial agonist
  T hybridoma (SI) 8B12: 19 SI
T cell hybridoma 8B12; [1]
  Peptide concentration for half maximal stimulation (IL-2), 8B12: 0.21 µg/mL
T cell hybridoma 8B12; Table 1, DRB1*0401 BLCL as APC, background 7,470 counts, representative of at least three experiments
  Hybridoma response (SI) 8B12: 9 SI
T cell hybridoma 8B12; Table 2, DRB1*0401 BLCL as APC, background 8,773 counts, SD not above 15%
  Hybridoma response (SI) 8B12: 39 SI
T cell hybridoma 14G11; Figure 1, IL-2 production, DRB1*0401 BLCL as APC, duplicate or triplicate, background 7,152 counts, ±30% of WT response = super/partial agonist
  T hybridoma (SI) 14G11: 35 SI
T cell hybridoma 14G11; [1]
  Peptide concentration for half maximal stimulation (IL-2), 14G11: 0.26 µg/mL
T cell hybridoma 14G11; Table 1, DRB1*0401 BLCL as APC, background 8,598 counts, representative of at least three experiments
  Hybridoma response (SI) 14G11: 15 SI
T cell hybridoma 14G11; Table 2, DRB1*0401 BLCL as APC, background 10,131 counts, SD not above 15%
  Hybridoma response (SI) 14G11: 30 SI
